Data on one compound can be found in US20130252890A1, “6,7-DIHYDRO-5H-BENZO[7]ANNULENE DERIVATIVES, PROCESS FOR PREPARATION THEREOF, PHARMACEUTICAL PREPARATIONS COMPRISING THEM, AND THE USE THEREOF FOR PRODUCTION OF MEDICAMENTS” (BAYER INTELLECTUAL PROPERTY GMBH, priority 2010, published 2013).

One data set addresses T1, oestrogen receptor (ER) (Homo sapiens, UniProt P03372).
T1 construct: These MVLN cells express, along with the functional oestrogen receptor (ER), a reporter construct; endogenous in cells; host or cells: MVLN cells (MCF7 derivative carrying a luciferase reporter construct)
T1 sequence (P03372 1-595): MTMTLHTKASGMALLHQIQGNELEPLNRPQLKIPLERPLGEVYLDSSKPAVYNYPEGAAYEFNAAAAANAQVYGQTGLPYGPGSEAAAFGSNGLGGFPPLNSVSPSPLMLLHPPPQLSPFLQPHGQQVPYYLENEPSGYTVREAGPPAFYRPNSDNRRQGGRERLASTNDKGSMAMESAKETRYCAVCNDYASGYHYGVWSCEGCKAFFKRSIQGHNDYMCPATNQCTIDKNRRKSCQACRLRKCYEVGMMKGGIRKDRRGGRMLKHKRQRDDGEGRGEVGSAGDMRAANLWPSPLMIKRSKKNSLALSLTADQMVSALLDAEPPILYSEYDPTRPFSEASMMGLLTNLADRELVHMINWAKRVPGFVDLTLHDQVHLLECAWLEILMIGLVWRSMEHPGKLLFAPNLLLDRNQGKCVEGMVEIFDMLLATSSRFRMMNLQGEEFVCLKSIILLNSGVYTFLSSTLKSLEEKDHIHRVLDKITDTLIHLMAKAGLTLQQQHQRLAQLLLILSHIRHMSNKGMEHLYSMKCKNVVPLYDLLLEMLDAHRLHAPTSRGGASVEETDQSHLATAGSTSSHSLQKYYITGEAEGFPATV
As to the kind of experiment: Anti-oestrogenic action in MVLN cells (inhibition of estradiol-induced luciferase). The format is cell-based. Conditions: inhibition of estradiol-induced luciferase signal, value of Ex. 44 is a mean value, read-out: Antioestrogenic action in vitro: MVLN transactivation antagonism IC50. In short, it runs like this:
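MVLN cells, MCF7 breast cancer derivatives carrying functional ER plus an ER-activated luciferase reporter, were treated with compounds in the presence of estradiol. Anti-oestrogenic activity taken as inhibition of the estradiol-induced luciferase signal.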

Data set [1] relates to uterus. The data set is described as follows: Oestrogenic action - uterus growth test in the infantile rat. The format is in vivo. Conditions: sc, 72 h, s.c. 3 days, maximum at dose 0.1 mg/kg, relative to E2 0.3 μg/animal, read-out: maximum uterotropic action (% estradiol action) in the dose range from 0.03 to 3 mg/kg. Here is the method:
Both the uterus and the vagina show a weight increase that is dependent on oestrogenic efficacy, in infantile animals when they are treated with a substance with oestrogenic action. In the uterus, under oestrogenic action there is also proliferation and increase in height of the luminal epithelium.
Immature, intact rats (n=5-6 animals/group; body weight 40-50 g) receive the substance s.c. for 3 days (d1-d3). On day 4 (d4) the animals are killed with CO2. The uteri are removed and weighed. For histological assessment, a piece of uterus, preferably a uterine horn, is fixed in formaldehyde and embedded in paraffin. The stimulation of the organ weights (relative to mg/100 g body weight) and the height of the epithelium are shown as percentage stimulation in comparison with the reference compound 17β-estradiol (E2). (Substitution dose of E2 0.3 μg/animal).

Data set [2] relates to uterus. As to the kind of experiment: Anti-uterus growth test in the adult rat. The following applies: sc, 72 h; ovariectomized adult rat, s.c. 3 days with 1.5 μg/kg/day 17β-estradiol; inhibition of uterus growth; value of 44 is a mean of two measurements; read-out: anti-oestrogenic activity in vivo in % at a dose of 0.3 mg/kg (rat). In short, it runs like this: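 Rats ovariectomized 6–10 days earlier (n=5–6/group) received test substances s.c. on days 1–3 together with 17β-estradiol at 1.5 μg/kg/day; estradiol alone and excipients served as controls. On day 4, uterus and vagina weights were normalized to mg/100 g body weight. Inhibition of estradiol-induced uterine growth is given as a percentage.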

In data set [3] the test system is peripheral cholesterol level. As to the kind of experiment: Hepatic oestrogenicity in the ovariectomized adult rat (plasma cholesterol). The format is in vivo. The following applies: ovariectomized adult rats, s.c. daily for 6 days; cholesterol day 0 vs day 8. From the text: Substances with oestrogenic action influence the synthesis of various plasma proteins, of coagulation factors and fibrinolytic factors in the liver. […] In the present investigations, lowering of the peripheral cholesterol level is used as a surrogate parameter for analysis of the hepatic oestrogenicity of the claimed pharmacological compounds. Adult ovariectomized rats were, after a pause of 6-10 days, treated daily for 6 days with the substances by subcutaneous application. The plasma cholesterol levels were determined and compared before and after the respective treatment.

Data set [4] has as its system bone mass and uterus weight. The data set is described as follows: Antagonistic action on bone mass and uterus weight in hormonally intact rats. The data set is classed as in vivo, Sprague-Dawley rats. Conditions: adult hormonally intact rats, oral 1-10 mg/kg, 2 months. Here is the method:
Application was oral, in peanut oil/ethanol. The animals were killed on the day after the last application and the tibia and uteri were removed. The uteri were weighed, fixed and prepared for optional histological investigations. Bone density was determined on long bones by pQCT (quantitative computed tomography), once before the treatment, once on the day of autopsy. The variations for this parameter were shown correspondingly between these two reference points (values below 100 correspond to a decrease in bone mass density, values above 100 to an increase). The control group was a group of animals from which the ovaries had been removed (OVX) (due to ovariectomy, as expected there is a decrease in density of the trabecular bone in the measured range over the period of the experiment). All other animals underwent a SHAM-OP (a sham operation) (without the ovaries being removed) in addition to the application treatment. The changes in relative uterus weights served as the reference for the anti-oestrogenic action.

Entries after “also recorded” stand apart in the source; their conditions may differ.

One may read the IC50 as the midpoint of a concentration-inhibition curve. For `CN(CCCCCCC1=C(c2cc(F)cc(F)c2)CCCc2cc(O)ccc21)CCCCS(=O)(=O)CCCC(F)(F)F` [Example 44, 8-(3,5-Difluorophenyl)-9-[6-(methyl{4-[(4,4,4-trifluorobutyl)sulphonyl]butyl}amino)hexyl]-6,7-dihydro-5H-benzo[7]annulen-3-ol], the IC50 on oestrogen receptor (ER) came out at 5.6 nM. For the same compound, the Emax at 0.1 mg/kg in the data set with uterus [1] was 6%. Also, in the data set with uterus [2], the inhibition in vivo at 0.3 mg/kg was 37%. Further, the “hepatic oestrogenicity: lowering of the peripheral cholesterol level” value in data set [3] was “only observed at high dosage”. For the same compound, in data set [4], the “effect on relative uterus weight (anti-oestrogenic action)” value is reported as “dose-dependent anti-oestrogenic action on the uterus; also recorded: dose-dependent decrease” and the “trabecular bone mass density of the tibia” value is “not reduced; also recorded: does not show a significant decrease in bone mass density at any of the tested dosages”.
